Activity calls are given as the source filed them. The rule behind the calls is not given here.
What was measured:
Mus musculus [1] = experiment: Anticonvulsant activity in Swiss albino Mus musculus (mouse) assessed as protection against ScMet-induced myoclonic-clonic seizures at 30 mg/kg, ip measured at 4 hr; format: functional, organism-based; set-up: dose 30 mg/kg
Mus musculus [2] = experiment: Anticonvulsant activity in Swiss albino Mus musculus (mouse) assessed as protection against maximal electric shock-induced tonic-clonic seizures at 30 mg/kg, ip measured at 4 hr; format: functional, organism-based; set-up: dose 30 mg/kg
Mus musculus [3] = experiment: Anticonvulsant activity in Swiss albino Mus musculus (mouse) assessed as protection against maximal electric shock-induced tonic-clonic seizures at 30 mg/kg, ip measured at 0.5 hr; format: functional, organism-based; set-up: dose 30 mg/kg
Mus musculus [4] = experiment: Anticonvulsant activity in Swiss albino Mus musculus (mouse) assessed as protection against maximal electric shock-induced tonic-clonic seizures at 300 mg/kg, ip measured at 4 hr; format: functional, organism-based; set-up: dose 300 mg/kg
Mus musculus [5] = experiment: Anticonvulsant activity in Swiss albino Mus musculus (mouse) assessed as protection against ScMet-induced myoclonic-clonic seizures at 300 mg/kg, ip measured at 0.5 hr; format: functional, organism-based; set-up: dose 300 mg/kg
Mus musculus [6] = experiment: Anticonvulsant activity in Swiss albino Mus musculus (mouse) assessed as protection against ScMet-induced myoclonic-clonic seizures at 300 mg/kg, ip measured at 4 hr; format: functional, organism-based; set-up: dose 300 mg/kg
Mus musculus [7] = experiment: Anticonvulsant activity in Swiss albino Mus musculus (mouse) assessed as protection against maximal electric shock-induced tonic-clonic seizures at 100 mg/kg, ip measured at 4 hr; format: functional, organism-based; set-up: dose 100 mg/kg
Mus musculus [8] = experiment: Anticonvulsant activity in Swiss albino Mus musculus (mouse) assessed as protection against ScMet-induced myoclonic-clonic seizures at 100 mg/kg, ip measured at 0.5 hr; format: functional, organism-based; set-up: dose 100 mg/kg
Mus musculus [9] = experiment: Neurotoxicity against Swiss albino Mus musculus (mouse) at 100 mg/kg, ip measured at 0.5 hr; format: toxicity, organism-based; set-up: dose 100 mg/kg, route intraperitoneal; details: in vivo
Mus musculus [10] = experiment: Neurotoxicity against Swiss albino Mus musculus (mouse) at 30 mg/kg, ip measured at 0.5 hr; format: toxicity, organism-based; set-up: dose 30 mg/kg, route intraperitoneal; details: in vivo
Mus musculus [11] = experiment: Anticonvulsant activity in Swiss albino Mus musculus (mouse) assessed as protection against ScMet-induced myoclonic-clonic seizures at 100 mg/kg, ip measured at 4 hr; format: functional, organism-based; set-up: dose 100 mg/kg
Mus musculus [12] = experiment: Neurotoxicity against Swiss albino Mus musculus (mouse) at 100 mg/kg, ip measured at 4 hr; format: toxicity, organism-based; set-up: dose 100 mg/kg, route intraperitoneal; details: in vivo
Mus musculus [13] = experiment: Neurotoxicity against Swiss albino Mus musculus (mouse) at 300 mg/kg, ip measured at 0.5 hr; format: toxicity, organism-based; set-up: dose 300 mg/kg, route intraperitoneal; details: in vivo
Mus musculus [14] = experiment: Anticonvulsant activity in Swiss albino Mus musculus (mouse) assessed as protection against maximal electric shock-induced tonic-clonic seizures at 100 mg/kg, ip measured at 0.5 hr; format: functional, organism-based; set-up: dose 100 mg/kg
Mus musculus [15] = experiment: Neurotoxicity against Swiss albino Mus musculus (mouse) at 30 mg/kg, ip measured at 4 hr; format: toxicity, organism-based; set-up: dose 30 mg/kg, route intraperitoneal; details: in vivo
Mus musculus [16] = experiment: Anticonvulsant activity in Swiss albino Mus musculus (mouse) assessed as protection against maximal electric shock-induced tonic-clonic seizures at 300 mg/kg, ip measured at 0.5 hr; format: functional, organism-based; set-up: dose 300 mg/kg
Mus musculus [17] = experiment: Anticonvulsant activity in Swiss albino Mus musculus (mouse) assessed as protection against ScMet-induced myoclonic-clonic seizures at 30 mg/kg, ip measured at 0.5 hr; format: functional, organism-based; set-up: dose 30 mg/kg
Mus musculus [18] = experiment: Neurotoxicity against Swiss albino Mus musculus (mouse) at 300 mg/kg, ip measured at 4 hr; format: toxicity, organism-based; set-up: dose 300 mg/kg, route intraperitoneal; details: in vivo

Row | Compound | Activity (Mus musculus [1]) | Activity (Mus musculus [2]) | Activity (Mus musculus [3]) | Activity (Mus musculus [4]) | Activity (Mus musculus [5]) | Activity (Mus musculus [6]) | Activity (Mus musculus [7]) | Activity (Mus musculus [8]) | Activity (Mus musculus [9]) | Activity (Mus musculus [10]) | Activity (Mus musculus [11]) | Activity (Mus musculus [12]) | Activity (Mus musculus [13]) | Activity (Mus musculus [14]) | Activity (Mus musculus [15]) | Activity (Mus musculus [16]) | Activity (Mus musculus [17]) | Activity (Mus musculus [18])
1 | CCc1ccccc1NC(=O)CNC(=O)c1ccccc1 | inactive | inactive | inactive | inactive | inactive | inactive | inactive | inactive | Non-toxic | Non-toxic | inactive | Non-toxic | Non-toxic | inactive | Non-toxic | inactive | inactive | Non-toxic
2 | CC(C)c1ccccc1NC(=O)CNC(=O)c1ccccc1 | inactive | inactive | inactive | inactive | inactive | inactive | inactive | inactive | Non-toxic | Non-toxic | inactive | Non-toxic | Non-toxic | inactive | Non-toxic | Active | inactive | Non-toxic
3 | Cc1cccc(C)c1NC(=O)CNC(=O)c1ccccc1 | inactive | inactive | inactive | Active | inactive | inactive | Active | inactive | Non-toxic | Non-toxic | inactive | Non-toxic | Non-toxic | inactive | Non-toxic | inactive | inactive | Non-toxic
4 | O=C(CNC(=O)c1ccccc1)Nc1ccccc1Cl | inactive | inactive | inactive | inactive | inactive | inactive | inactive | inactive | Non-toxic | Non-toxic | inactive | Non-toxic | Non-toxic | inactive | Non-toxic | inactive | inactive | Non-toxic
5 | O=C(CNC(=O)c1ccc([N+](=O)[O-])cc1)Nc1ccccc1 | inactive | inactive | inactive | inactive | Active | Active | inactive | inactive | Non-toxic | Non-toxic | inactive | Non-toxic | Non-toxic | inactive | Non-toxic | inactive | inactive | Non-toxic
6 | O=C(CNC(=O)c1ccccc1)Nc1ccccc1 | inactive | inactive | inactive | inactive | inactive | inactive | inactive | inactive | Non-toxic | Non-toxic | inactive | Non-toxic | Non-toxic | inactive | Non-toxic | Active | inactive | Non-toxic

Source: ChEMBL document CHEMBL3045887, “Synthesis and anticonvulsant activity of some N-(benzoyl)glycinanilide derivatives” (Med Chem Res, 2013)
